Measured values as given in patent publication US9468624B2, “Small molecule antagonists of bacterial quorum-sensing receptors” (priority 2008, dated 2016).

Legend:
CviR = CviR (Chromobacterium violaceum, UniProt D3W065); format: binding; design: made in house; host or cells: E. coli BL21(DE3) pLysS, plasmid pET23b; details: for DNA binding of ligand-loaded CviR to vioA promoter: CviR 100-500 nM
Description: CviR Overexpression and Purification. CviR was overexpressed in BL21(DE3) pLysS by growing an overnight culture in LB supplemented with 100 μg/mL ampicillin and 10 μg/mL chloramphenicol. The culture was diluted 1:50 into fresh LB supplemented with 100 μg/mL ampicillin and 10 μg/mL chloramphenicol and grown shaking at 37° C. to an OD600 of 0.4. Various AHL or antagonist molecules were added to at 50 μM and incubated an additional 30 minutes at 30° C., after which expression was induced by the addition of 100 μM IPTG (isopropyl-β-D-thiogalactopyranoside) for 4 hours at 30° C. Cells were harvested by centrifugation and lysed in 20 mM imidazole pH 8.0, 100 mM NaCl, 0.5 mM EDTA and 5% glycerol via a Micro-fluidizer processor (MicroFluidics). Protein was purified via ion-exchange using a Hitrap Heparin HP column (GE Healthcare). Protein was eluted with a 100 mM to 1 M NaCl gradient. Fractions containing CviR were pooled and diluted in lysis buffer devoid of NaCl, and then further purified by cation exchange chromatography using a Hitrap SP HP column (GE Healthcare). CviR was eluted with a 100 mM to 1 M NaCl gradient.
DNA probes for gel mobility shift analyses were generated by standard polymerase chain reaction using primers with a 5′ 6-FAM (fluorescein) tag (Integrated DNA Technologies). The target probe contained about 100 nucleotides of the vioA promoter. The control probe contained 300 bases of vioB intergenic DNA. 37 ng of each probe was incubated for 20 minutes at room temperature with the indicated amounts of CviR (0, 0.1, 0.2, 0.3, 0.4 and 0.5 μM) and 1 μg/μL poly-dIdC in 1× Gel shift buffer (40 mM Tris HCl pH 8.0, 100 mM KCL, 2 mM EDTA, 2 mM DTT, 10% glycerol, 200 μg/mL BSA). Gel mobility shifts were performed on 6% TGE-polyacrylamide gels and visualized using a Storm 860 Imaging System (Molecular Dynamics).
To further investigate the mechanism underlying antagonism of the CviR receptor, an examination was undertaken of whether the soluble CviR antagonist complexes were incapable of binding DNA, and thus unable to activate transcription. […] The CviR protein was also purified in complex with each of the synthetic antagonist molecules, 4606-4237, CTL, and CL. Performance of DNA gel mobility shift analyses enabled assessment of the binding of each of these purified, loaded protein complexes to the vioA promoter.
The reciprocal experiment tested whether C6-HSL could replace CL bound to CviR.

LuxN = biological target: T1, LuxN (Vibrio campbellii, UniProt A7MRY4); assay: V. harveyi bioluminescence dose-response; format: cell-based, Vibrio harveyi; details: IC50 for inhibition of bioluminescence
T1 construct: Light production from wild type V. harveyi (BB120), a luxPQ mutant (BB960), and a luxPQ, luxS double mutant (JMH624) was measured; endogenous in cells; host or cells: V. harveyi BB120, BB960 (luxQ::Tn5), JMH624 (ΔluxM, luxQ::Tn5)
Description: Wild type C. violaceum strain ATCC31532 was purchased from the ATCC. The cviI mutant strain, CV026 was kindly supplied by Clay Fuqua and Paul Williams. C. violaceum strains were grown aerobically at 30° C. in either Luria-Bertani broth or Nutrient Broth supplemented with 1 mM trypotophan. V. harveyi strains were grown aerobically at 30° C. in autoinducer bioassay (AB) broth. AI-1 dose-response curves were generated in V. harveyi strains BB120, BB960 and JMH624 as described. E. coli was grown at 37° C. in Luria Bertani broth. The plasmid pET23b (Novagen) was used for expressing cviR in E. coli strain BL21-Gold (DE3) or BL21(DE3) pLysS (Stratagene) and maintained by inclusion of Ampicillin at 100 μg/ml. Plasmid pEVS141 was used for the vioA-gfp promoter fusion and maintained with 50 μg/ml of Kanamycin. C. elegans wild type strain, N2 was used for all of the nematode infection studies. Worms were propagated on Nematode Growth Media (NGM) medium with an E. coli OP50 lawn as the food source and allowed to multiply at 20° C.
To determine the properties of CTL and CL in relation to the LuxN receptor, the in vivo activity was examined of 4606-4237, CTL, and CL for V. harveyi LuxN using dose response analyses of the endogenous quorum-sensing-activated target, bioluminescence. Three different V harveyi strains were examined (1) The wild type V. harveyi strain BB120 which has multiple quorum-sensing circuits, and thus responds to multiple autoinducers, only one of which is the AHL acting through LuxN. (2) V. harveyi BB960 which lacks the receptor for the second autoinducer making the AHL-LuxN circuit the dominant input into bioluminescence expression. (3) V. harveyi JMH624 which, in addition to lacking the receptor for the second autoinducer lacks the AHL synthase LuxM. Thus, V. harveyi JMH624 induces bioluminescence exclusively in response to the AHL, 3OH-C4-HSL signal but only when it is supplied exogenously. Exogenous addition of 20 nM 3OH-C4-HSL is sufficient to induce maximal bioluminescence in all of these strains.

[1] = test system: C. violaceum killing of C. elegans; assay: C. elegans life span assay following C. violaceum infection; format: in vivo, Caenorhabditis elegans; details: wild type C. violaceum, CL 20 μM; untreated two days
Description: Life Span Assays. C. elegans lifespan assays were completed with at least 100 wild type N2 worms for each condition. C. elegans eggs were harvested from a large population of gravid adults using a standard bleaching protocol (30 mL 5% bleach, 15 mL N KOH, 55 mL DH2O). Harvested eggs were placed on lawns of fresh E. coli OP50 and allowed to hatch and grow to the young adult (L4) stage before being moved onto lawns of C. violaceum. Worms were scored for survival each day and transferred to new C. violaceum lawns every two days until all worms had expired.
In the presence of the mutant strain, the median C. elegans lifespan is twelve days (FIG. 7A; DMSO control). Exogenous addition of the native autoinducer molecule, C6-HSL restored quorum sensing and complemented the cviI mutant's ability to kill C. elegans (median lifespan=4 days, FIG. 7A).

[2] = V. harveyi JMH624 + 20 nM 3OH-C4-HSL

T1 sequence (A7MRY4 whole entry): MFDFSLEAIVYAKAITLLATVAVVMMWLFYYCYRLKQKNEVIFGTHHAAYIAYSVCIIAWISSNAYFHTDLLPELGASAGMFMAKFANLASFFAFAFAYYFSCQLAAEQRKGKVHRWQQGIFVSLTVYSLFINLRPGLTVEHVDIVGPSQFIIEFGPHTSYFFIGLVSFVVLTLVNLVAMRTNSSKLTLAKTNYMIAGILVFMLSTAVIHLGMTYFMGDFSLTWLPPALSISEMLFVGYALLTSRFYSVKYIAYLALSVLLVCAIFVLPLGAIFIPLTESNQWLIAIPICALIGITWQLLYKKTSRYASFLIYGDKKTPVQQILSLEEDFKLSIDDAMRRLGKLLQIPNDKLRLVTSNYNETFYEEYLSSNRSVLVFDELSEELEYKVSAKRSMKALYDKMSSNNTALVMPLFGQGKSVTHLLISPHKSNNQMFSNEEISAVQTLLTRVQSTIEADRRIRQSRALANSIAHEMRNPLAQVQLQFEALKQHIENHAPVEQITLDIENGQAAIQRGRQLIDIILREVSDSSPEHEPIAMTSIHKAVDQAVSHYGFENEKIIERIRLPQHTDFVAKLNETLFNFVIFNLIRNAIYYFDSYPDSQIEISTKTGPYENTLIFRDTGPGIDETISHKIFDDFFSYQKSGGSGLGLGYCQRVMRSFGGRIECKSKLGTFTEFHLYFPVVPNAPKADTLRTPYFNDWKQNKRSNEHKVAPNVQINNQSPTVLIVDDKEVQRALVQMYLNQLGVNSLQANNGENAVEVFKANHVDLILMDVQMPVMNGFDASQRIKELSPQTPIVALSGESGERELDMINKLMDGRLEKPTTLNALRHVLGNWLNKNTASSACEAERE
CviR, sequence (D3W065 1-265): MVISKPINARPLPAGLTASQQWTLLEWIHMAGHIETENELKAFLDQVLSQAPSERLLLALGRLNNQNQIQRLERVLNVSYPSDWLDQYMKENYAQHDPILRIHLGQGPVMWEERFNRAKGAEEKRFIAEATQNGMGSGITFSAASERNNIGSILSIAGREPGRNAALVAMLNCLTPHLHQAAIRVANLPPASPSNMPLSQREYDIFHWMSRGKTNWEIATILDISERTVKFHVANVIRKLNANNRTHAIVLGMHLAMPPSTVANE

SMILES | DNA binding of ligand-loaded CviR to vioA promoter (CviR) | IC50 (LuxN; V. harveyi BB960) [µM] | IC50 (LuxN; [2]) [µM] | IC50 (LuxN; wild type V. harveyi BB120) [µM] | C. elegans lifespan [1] | ligand exchange on loaded CviR, effect on DNA binding (CviR; 500 nM loaded CviR, competing ligand 0-10 μM)
O=C(CCCOc1ccc(Cl)cc1)NC1CCSC1=O (stereo not shown) [CTL, Chloro-thiolactone] | no ability to bind DNA | 28 | 6 | 150 |  | 
O=C(CCCOc1ccc(Cl)cc1)NC1CCOC1=O (stereo not shown) [CL, chlorolactone] | no ability to bind DNA | 14 | 0.873 | 40 | seven | DNA binding decreased in a dose dependent manner
